In patent US12441768B2, “Compositions and methods for treating endometriosis” (EndoMet Biosciences, Inc., priority 2018, dated 2025) one finds EC50, Kd and viability data, which are given here for 13 compounds.

Data set [1] addresses Wnt-responsive promoter (TCF/LEF). The data set can be described thus: Wnt-dependent luciferase reporter assay. Type of data set: cell-based, murine. The procedure, abridged: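 EC50 (uM) derived from inhibition of luminescence in Wnt3a-stimulated murine 3T3 cells expressing luciferase under a TCF/LEF promoter, with peptides added across a concentration range and vehicle as control.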

In a further data set the target is T1, β-catenin (Homo sapiens, UniProt P35222).
T1 sequence (P35222 1-781): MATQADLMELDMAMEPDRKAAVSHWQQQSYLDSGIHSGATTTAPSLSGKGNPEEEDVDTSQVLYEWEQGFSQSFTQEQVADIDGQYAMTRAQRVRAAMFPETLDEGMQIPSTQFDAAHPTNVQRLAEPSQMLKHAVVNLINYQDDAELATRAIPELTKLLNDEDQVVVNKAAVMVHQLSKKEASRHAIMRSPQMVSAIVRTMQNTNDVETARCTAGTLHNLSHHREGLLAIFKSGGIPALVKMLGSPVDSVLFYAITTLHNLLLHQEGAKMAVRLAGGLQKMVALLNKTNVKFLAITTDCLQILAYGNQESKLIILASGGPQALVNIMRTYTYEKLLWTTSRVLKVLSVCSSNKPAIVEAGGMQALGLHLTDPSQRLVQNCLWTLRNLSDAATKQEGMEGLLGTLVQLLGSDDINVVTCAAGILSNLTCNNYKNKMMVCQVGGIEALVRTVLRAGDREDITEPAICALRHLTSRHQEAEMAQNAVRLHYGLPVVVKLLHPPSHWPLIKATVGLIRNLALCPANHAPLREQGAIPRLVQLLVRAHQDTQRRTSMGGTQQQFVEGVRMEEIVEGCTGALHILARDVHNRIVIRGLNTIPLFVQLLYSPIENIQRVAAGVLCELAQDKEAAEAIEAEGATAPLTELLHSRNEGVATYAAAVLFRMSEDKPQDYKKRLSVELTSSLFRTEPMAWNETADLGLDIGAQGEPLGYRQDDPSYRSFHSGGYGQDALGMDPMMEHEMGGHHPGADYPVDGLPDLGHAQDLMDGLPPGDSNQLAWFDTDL
The data set can be described thus: KD50 measurement using competitive fluorescence polarization (FP) with labelled TCF4. Type of data set: binding. Conditions: fluorescence polarization, β-catenin; read-out: β-Cat FP KD. The procedure, abridged: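 Labelled TCF4 (5 nM) mixed with 100 nM β-catenin at room temperature; inhibitor added as serial dilutions from 10 nM to 30 uM. Polarization read at excitation 470 nm/emission 520 nm; binding displacement lowers polarization. Three independent runs.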
On the technique in general: Fluorescence polarisation rises when a labelled molecule tumbles more slowly, as on binding a larger partner.

The conditions of data set [2]: % Viability non-Wnt responsive cells.

Where a SMILES comes first, the peptide text is derived from it. Some results are limits rather than exact numbers.

As usually defined, the EC50 is the concentration needed to bring the measured effect to its halfway point. Low values mean a more potent agent, high ones a less potent agent. In general, Kd refers to the equilibrium constant for the complex coming apart. For orientation: viability means a read-out of living cells in per cent, often relative to untreated cells. `CC[C@H](C)[C@@H]1NC(=O)[C@H](CC(C)C)NC(=O)[C@H]([C@@H](C)CC)NC(=O)[C@H](Cc2c[nH]c3ccccc23)NC(=O)[C@H](CCSC)NC(=O)[C@@H](N)CCCCNC(=O)CNC(=O)[C@H](Cc2c[nH]c3ccccc23)NC(=O)[C@H](Cc2ccccc2)NC(=O)[C@H](CO)NC1=O` [compound 71] (HELM PEPTIDE1{K.M.W.I.L.I.S.F.W.G}$PEPTIDE1,PEPTIDE1,1:R3-10:R2$$$V2.0) registered an EC50 in data set [1] of more than 30 µM. Also, the equilibrium dissociation constant (Kd) on β-catenin is more than 30 µM. In data set [2], the viability amounted to 93.7%.

For the compound `CC[C@H](C)[C@H](NC(=O)[C@H](CC(C)C)NC(=O)[C@H](Cc1ccccc1)NC(=O)[C@H](Cc1c[nH]c2ccccc12)NC(=O)[C@H](CCSC)NC(=O)[C@H](CCCNC(=N)N)NC(=O)[C@H](CO)NC(=O)[C@@H](N)CCSC)C(=O)N[C@@H](CO)C(=O)N[C@@H](Cc1ccccc1)C(=O)N[C@@H](Cc1c[nH]c2ccccc12)C(N)=O` [compound 72] (H-MSRMWFLISFW-NH2), the EC50 in data set [1] is more than 30 µM. Further, the Kd at β-catenin was more than 30 µM. Besides, the viability in data set [2] amounted to 88.6%.

In turn, `CC[C@H](C)[C@H](NC(=O)[C@H](CC(C)C)NC(=O)[C@H](Cc1ccccc1)NC(=O)[C@H](Cc1c[nH]c2ccccc12)NC(=O)[C@H](CCSC)NC(=O)[C@H](CCCNC(=N)N)NC(=O)[C@@H](NC(=O)[C@@H](N)CCSC)[C@@H](C)O)C(=O)N[C@@H](CO)C(=O)N[C@@H](Cc1ccccc1)C(=O)N[C@@H](Cc1c[nH]c2ccccc12)C(N)=O` [compound 73] (H-MTRMWFLISFW-NH2) displayed a 50% effective concentration (EC50) in data set [1] of more than 30 µM. At β-catenin, the dissociation constant (Kd) is more than 30 µM. In addition, in data set [2], the viability is 97.3%.

`CC[C@H](C)[C@H](NC(=O)[C@H](CC(C)C)NC(=O)[C@H](Cc1ccccc1)NC(=O)[C@H](Cc1c[nH]c2ccccc12)NC(=O)[C@H](CCSC)NC(=O)[C@H](CCCNC(=N)N)NC(=O)[C@H](CCC(N)=O)NC(=O)[C@@H](N)CCSC)C(=O)N[C@@H](CO)C(=O)N[C@@H](Cc1ccccc1)C(=O)N[C@@H](Cc1c[nH]c2ccccc12)C(N)=O` [compound 74] (H-MQRMWFLISFW-NH2) displayed an EC50 in data set [1] of more than 30 µM. Further, at β-catenin, the equilibrium dissociation constant (Kd) was more than 30 µM. Also, the viability in data set [2] worked out at 91.2%.

`CC[C@H](C)[C@H](NC(=O)[C@H](CC(C)C)NC(=O)[C@H](Cc1ccccc1)NC(=O)[C@H](Cc1c[nH]c2ccccc12)NC(=O)[C@H](CCCNC(=N)N)NC(=O)[C@H](CCCNC(=N)N)NC(=O)[C@H](CO)NC(=O)[C@@H](N)CCSC)C(=O)N[C@@H](CO)C(=O)N[C@@H](Cc1ccccc1)C(=O)N[C@@H](Cc1c[nH]c2ccccc12)C(N)=O` [compound 75] (H-MSRRWFLISFW-NH2) showed an EC50 in data set [1] of more than 30 µM. In addition, the equilibrium dissociation constant (Kd) on β-catenin was more than 30 µM. Further, the viability in data set [2] worked out at 99.2%.

Consider `CC[C@H](C)[C@H](NC(=O)[C@H](CC(C)C)NC(=O)[C@H](Cc1ccccc1)NC(=O)[C@H](Cc1c[nH]c2ccccc12)NC(=O)[C@@H](NC(=O)[C@H](CCCNC(=N)N)NC(=O)[C@H](CO)NC(=O)[C@@H](N)CCSC)[C@@H](C)O)C(=O)N[C@@H](CO)C(=O)N[C@@H](Cc1ccccc1)C(=O)N[C@@H](Cc1c[nH]c2ccccc12)C(N)=O` [compound 76] (H-MSRTWFLISFW-NH2), for which, in data set [1], the concentration for a half-maximal effect (EC50) was more than 30 µM. In addition, the Kd at β-catenin was more than 30 µM. Besides, the viability in data set [2] was 105%.

For the compound `CC[C@H](C)[C@H](NC(=O)[C@H](CC(C)C)NC(=O)[C@H](Cc1ccccc1)NC(=O)[C@H](Cc1c[nH]c2ccccc12)NC(=O)[C@H](Cc1ccccc1)NC(=O)[C@H](CCCNC(=N)N)NC(=O)[C@H](CO)NC(=O)[C@@H](N)CCSC)C(=O)N[C@@H](CO)C(=O)N[C@@H](Cc1ccccc1)C(=O)N[C@@H](Cc1c[nH]c2ccccc12)C(N)=O` [compound 77] (H-MSRFWFLISFW-NH2), in data set [1], the concentration for a half-maximal effect (EC50) was more than 30 µM. In addition, the Kd at β-catenin was more than 30 µM. Also, in data set [2], the viability is 107%.

With `CC[C@H](C)[C@H](NC(=O)[C@H](CC(C)C)NC(=O)[C@H](Cc1ccccc1)NC(=O)[C@H](Cc1c[nH]c2ccccc12)NC(=O)[C@H](Cc1c[nH]c2ccccc12)NC(=O)[C@H](CCCNC(=N)N)NC(=O)[C@H](CO)NC(=O)[C@@H](N)CCSC)C(=O)N[C@@H](CO)C(=O)N[C@@H](Cc1ccccc1)C(=O)N[C@@H](Cc1c[nH]c2ccccc12)C(N)=O` [compound 78] (H-MSRWWFLISFW-NH2), the EC50 in data set [1] was more than 30 µM. In addition, the Kd on β-catenin was more than 30 µM. In data set [2], the viability stood at 101%.

Regarding `CC[C@H](C)[C@H](NC(=O)[C@H](CC(C)C)NC(=O)[C@H](Cc1ccccc1)NC(=O)[C@H](Cc1c[nH]c2ccccc12)NC(=O)[C@H](CCSC)NC(=O)[C@H](CCCNC(=N)N)NC(=O)[C@H](CO)NC(=O)[C@@H](N)Cc1c[nH]c2ccccc12)C(=O)N[C@@H](CO)C(=O)N[C@@H](Cc1ccccc1)C(=O)N[C@@H](Cc1c[nH]c2ccccc12)C(N)=O` [compound 79] (H-WSRMWFLISFW-NH2), the 50% effective concentration (EC50) in data set [1] is more than 30 µM. Besides, on β-catenin, the dissociation constant Kd is more than 30 µM. Moreover, the viability in data set [2] worked out at 98.8%.

In data set [1], `CC[C@H](C)[C@H](NC(=O)[C@H](CC(C)C)NC(=O)[C@H](Cc1c[nH]c2ccccc12)NC(=O)[C@H](Cc1c[nH]c2ccccc12)NC(=O)[C@H](CCSC)NC(=O)[C@H](CCCNC(=N)N)NC(=O)[C@H](CO)NC(=O)[C@@H](N)CCSC)C(=O)N[C@@H](CO)C(=O)N[C@@H](Cc1ccccc1)C(=O)N[C@@H](Cc1c[nH]c2ccccc12)C(N)=O` [compound 80] (H-MSRMWWLISFW-NH2) showed an EC50 of more than 30 µM. The dissociation constant (Kd) at β-catenin was more than 30 µM. For the same compound, in data set [2], the viability is 101%.

In the case of `CC[C@H](C)[C@H](NC(=O)[C@H](CC(C)C)NC(=O)[C@H](Cc1ccccc1)NC(=O)[C@H](Cc1c[nH]c2ccccc12)NC(=O)[C@H](CCSC)NC(=O)[C@H](CCCNC(=N)N)NC(=O)[C@H](CO)NC(=O)[C@@H](N)Cc1ccccc1)C(=O)N[C@@H](CO)C(=O)N[C@@H](Cc1ccccc1)C(=O)N[C@@H](Cc1c[nH]c2ccccc12)C(N)=O` [compound 81] (H-FSRMWFLISFW-NH2), the EC50 in data set [1] is more than 30 µM. On β-catenin, the dissociation constant (Kd) was more than 30 µM. Moreover, the viability in data set [2] is 90.7%.

The compound `CC[C@H](C)[C@H](NC(=O)[C@H](CC(C)C)NC(=O)[C@H](Cc1ccccc1)NC(=O)[C@H](Cc1c[nH]c2ccccc12)NC(=O)[C@H](CCSC)NC(=O)[C@H](CCCNC(=N)N)NC(=O)[C@H](CO)NC(=O)[C@@H](N)Cc1ccc(O)cc1)C(=O)N[C@@H](CO)C(=O)N[C@@H](Cc1ccccc1)C(=O)N[C@@H](Cc1c[nH]c2ccccc12)C(N)=O` [compound 82] (H-YSRMWFLISFW-NH2) returned a concentration for a half-maximal effect (EC50) in data set [1] of more than 30 µM. Moreover, the dissociation constant (Kd) on β-catenin is more than 30 µM. In addition, in data set [2], the viability was 84%.

In turn, `CC[C@H](C)[C@H](NC(=O)[C@H](CC(C)C)NC(=O)[C@H](Cc1ccccc1)NC(=O)[C@H](Cc1c[nH]c2ccccc12)NC(=O)[C@H](CCSC)NC(=O)[C@H](CCCNC(=N)N)NC(=O)[C@H](CO)NC(=O)[C@@H](N)CCCCN)C(=O)N[C@@H](CO)C(=O)N[C@@H](Cc1ccccc1)C(=O)N[C@@H](Cc1c[nH]c2ccccc12)C(N)=O` [compound 83] (H-KSRMWFLISFW-NH2) had an EC50 in data set [1] of more than 30 µM. For the same compound, the Kd on β-catenin was more than 30 µM. In addition, the viability in data set [2] came out at 90.9%.
